Test results reported in US20230348362A1, “LIPID COMPOUNDS AND LIPID NANOPARTICLE COMPOSITIONS” (Suzhou Abogen Biosciences Co., Ltd., priority 2021, published 2023).

Legend:
Format in all cases: physicochemical
[1] = Lipid nanoparticle size and polydispersity by dynamic light scattering; details: LNP of lipid/DSPC/cholesterol/PEG-lipid 50:10:38.5:1.5 encapsulating hEPO mRNA
Method: (§1) Briefly, a cationic lipid provided herein, DSPC, cholesterol, and PEG-lipid were solubilized in ethanol at a molar ratio of 50:10:38.5:1.5, and mRNA were diluted in 10 to 50 mM citrate buffer, pH=4. The LNPs were prepared at a total lipid to mRNA weight ratio of approximately 10:1 to 30:1 by mixing the ethanolic lipid solution with the aqueous mRNA solution at a volume ratio of 1:3 using a microfluidic apparatus, total flow rate ranging from 9-30 mL/min. Ethanol were thereby removed and replaced by DPBS using dialysis. Finally, the lipid nanoparticles were filtered through a […] sterile filter.
(§2) Lipid nanoparticle size were determined by dynamic light scattering using a Malvern Zetasizer Nano ZS (Malvern UK) using a […] backscatter detection mode. The encapsulation efficiency of lipid nanoparticles were determined using a Quant-it Ribogreen RNA quantification assay kit (Thermo Fisher Scientific, UK) according to the manufacturer's instructions.

[2] = Encapsulation efficiency of lipid nanoparticles, Quant-it Ribogreen RNA assay; details: LNP of lipid/DSPC/cholesterol/PEG-lipid 50:10:38.5:1.5 encapsulating hEPO mRNA
Method: as §1, §2

[3] = Apparent pKa of LNP formulations, TNS fluorescence assay; details: LNP cationic lipid/DSPC/cholesterol/DMG-PEG 50/10/38.5/1.5 mol %
Method: As reported in literature, the apparent pKa of LNP formulations correlates with the delivery efficiency of LNPs for nucleic acids in vivo. The apparent pKa of each formulation was determined using an assay based on fluorescence of 2-(p-toluidino)-6-napthalene sulfonic acid (TNS). LNP formulations comprising of cationic lipid/DSPC/cholesterol/DMG-PEG (50/10/38.5/1.5 mol %) in PBS were prepared as described above. TNS was prepared as a 300 μM stock solution in distilled water. LNP formulations were diluted to 0.1 mg/mL total lipid in 3 mL of buffered solutions containing 50 mM sodium citrate, 50 mM sodium phosphate, 50 mM sodium borate, and 30 mM sodium chloride where the pH ranged from 3 to 9. An aliquot of the TNS solution was added to give a final concentration of […] and following vortex mixing fluorescence intensity was measured at room temperature in a Molecular Devices Spectramax iD3 spectrometer using excitation and mission wavelengths of 325 nm and 435 nm. A sigmoidal best fit analysis was applied to the fluorescence data and the pKa value was measured as the pH giving rise to half-maximal fluorescent intensity.

SMILES	polydispersity [1]	size (nm) [1]	Encapsulation Efficiency [2]	Apparent Pka [3]
CCCCCCCCCCCOC(=O)CCCCCN(CCN(CCO)CCCCCC(=O)OCC(CCCCCC)CCCCCCCC)C1CC1 (stereo not drawn) [Compound 3]	0.131	73.33 nm	93.6%	6.32
CCCCCCCCCCCOC(=O)CCCCCN(CCN(CCO)CCCCCC(=O)OCC(CCCCCC)CCCCCCCC)C1CCC1 (stereo not drawn) [Compound 4]	0.076	90.8 nm	91.9%	6.709
CCCCCCCCCCCOC(=O)CCCCCN(CCN(CCO)CCCCCC(=O)OCC(CCCCCC)CCCCCCCC)C1CCCC1 (stereo not drawn) [Compound 5]	0.073	99.12 nm	92.7%	6.56
CCCCCCCCC(CCCCCC)COC(=O)CCCCCN(CCO)CCN(CCCCCC(=O)OCC(CCCCCC)CCCCCCCC)C1CCC1 (stereo not drawn) [Compound 7]	0.06	72.78 nm	96.5%	6.427
CCCCCCCCC(CCCCCC)COC(=O)CCCCCN(CCO)CCN(CCCCCC(=O)OCC(CCCCCC)CCCCCCCC)C1CCCC1 (stereo not drawn) [Compound 8]	0.136	65.15 nm	95.8%	6.401
CCCCCCCCC(CCCCCCCC)COC(=O)CCCCCN(CCO)CCN(CCCCCC(=O)OCC(CCCCCCCC)CCCCCCCC)C1CCC1 [Compound 10]	0.168	70.21 nm	86.6%	6.176
CCCCCCCCC(CCCCCCCC)CNC(=O)CCCCCN(CCO)CCN(CCCCCC(=O)NCC(CCCCCCCC)CCCCCCCC)C1CCCC1 [Compound 12]	0.062	58.17 nm	89.5%	6.685
CCCCCCCCC(CCCCCCCC)CNC(=O)CCCCCN(CCO)CCN(CCCCCC(=O)NCC(CCCCCCCC)CCCCCCCC)C1CCCCC1 [Compound 13]	0.105	60.71 nm	83.3%	6.633
CCCCCCCCC(CCCCCCCC)CNC(=O)CCCCCN(CCO)CCN(CCCCCC(=O)OCC(CCCCCCCC)CCCCCCCC)C1CCC1 [Compound 15]	0.022	65.95 nm	86.0%	6.724
CCCCCCCCC(CCCCCCCC)CNC(=O)CCCCCN(CCO)CCN(CCCCCC(=O)OCC(CCCCCCCC)CCCCCCCC)C1CCCC1 [Compound 16]	0.035	59.48 nm	99.2%	6.757
CCCCCCCCC(CCCCCCCC)CNC(=O)CCCCCN(CCO)CCN(CCCCCC(=O)OCC(CCCCCCCC)CCCCCCCC)C1CCCCCC1 [Compound 17]	0.033	58.8 nm	98.9%	6.671
CCCCC/C=C\CCCC(CCC/C=C\CCCCC)COC(=O)CCCCCN(CCO)CCN(CCCCCC(=O)OCC(CCC/C=C\CCCCC)CCC/C=C\CCCCC)C1CCCCC1 [Compound 18]	0.049	56.64 nm	96.4%	6.018
CCCCC/C=C\CCCOC(=O)CCCCCN(CCN(CCO)CCCCCC(=O)OCC(CCCCCCCC)CCCCCCCC)C1CCCCC1 [Compound 19]	0.046	80.6 nm	90.2%	6.269
CCCCCCCCC(CCCCCCCC)CNC(=O)CCCCCN(CCO)CCN(CCCCCC(=O)OCC(CCCCCCCC)CCCCCCCC)C1CCCCC1 [Compound 23]	0.039	57.5 nm	95.5%	6.686
CCCCCCCCC(CCCCCC)COC(=O)CCCCCN(CCO)CCN(CCCCCC(=O)OCC(CCCCCC)CCCCCCCC)C1CCCCCC1 (stereo not drawn) [Compound 24]	0.114	57.78 nm	93.90%	6.162
CCCCCCCCCCCCCCCCC(CN(CCO)CCN(CC(CCCCCCCCCCCCCCCC)OCCCCCCCC)C1CCC1)OCCCCCCCC (stereo not drawn) [Compound 25]	0.068	50.59 nm	90.67%	4.853
CCCCCCCCC(CCCCCCCC)COC(=O)CCCCCN(C)CCN(CCO)CCCCCC(=O)OCC(CCCCCCCC)CCCCCCCC [Compound 26]	0.13	63.47 nm	97.57%	7.024
CCCCCCCCC(CCCCCCCC)CNC(=O)CCCCCN1CCC(N(CCO)CCCCCC(=O)OCC(CCCCCCCC)CCCCCCCC)CC1 [Compound 171]	0.076	76.26 nm	96.23%	
CCCCCCCCC(CCCCCCCC)CNC(=O)CCCCCN1CCC(N(CCO)CCCCCC(=O)NCC(CCCCCCCC)CCCCCCCC)CC1 [Compound 172]	0.061	69.59 nm	93.55%	
CCCCCCCCCCCOC(=O)CCCCCN1CCC(N(CCO)CCCCCC(=O)OCC(CCCCCCCC)CCCCCCCC)CC1 [Compound 173]	0.068	61.61 nm	95.29%	
CCCCCCCCCCCOC(=O)CCCCCN1CCC(N(CCO)CCCCCCCC(=O)OC(CCCCCCCC)CCCCCCCC)CC1 [Compound 174]	0.063	78.27 nm	91.79%	
CCCCCCCCCOC(=O)CCCCCCCN(CCO)C1CCN(CCCCCCCC(=O)OC(CCCCCCCC)CCCCCCCC)CC1 [Compound 176]	0.123	65.70 nm	95.27%	
CCCCCCCC(=O)OCC(CCCCN1CCC(N(CCO)CCCCC(COC(=O)CCCCCCC)COC(=O)CCCCCCC)CC1)COC(=O)CCCCCCC [Compound 180]				6.699
CCCCCCCCC(CCCCCC)CNC(=O)CCCCCN(CCCCN(CCO)CCCCC(COC(=O)CCCCCCC)COC(=O)CCCCCCC)C1CCCC1 (stereo not drawn) [Compound 196]	0.18	104.1 nm	86.33%	
CCCCCCCCC(CCCCCC)CNC(=O)CCCCCN(CCCCN(CCO)CCCCC(COC(=O)CCCCCCC)COC(=O)CCCCCCC)C1CCCCC1 (stereo not drawn) [Compound 197]	0.158	70.01 nm	91.45%	
CCCCCCCCC(CCCCCC)CNC(=O)CCN(CCO)CCN(CCCCC(COC(=O)CCCCCCC)COC(=O)CCCCCCC)C1CCCCC1 (stereo not drawn) [Compound 211]	0.035	112.6 nm	84.88%	
CCCCCCCCC(CCCCCC)CNC(=O)CCN(CCO)CCN(CCCCC(COC(=O)CCCCCCC)COC(=O)CCCCCCC)C1CCCCCC1 (stereo not drawn) [Compound 212]	0.048	122.1 nm	87.31%	
CCCCCCCCC(CCCCCC)CNC(=O)CCN(CCO)CCN(CCCCC(COC(=O)CCCCCCC)COC(=O)CCCCCCC)C1CCCCCCC1 (stereo not drawn) [Compound 213]	0.07	110.8 nm	88.38%	
